Measurements: patent publication US20120283228A1, “2alpha-Methyl and 2beta-Methyl Analogs of 19,26-Dinor-1alpha,25-Dihydroxyvitamin D3 and Their Uses” (WISCONSIN ALUMNI RESEARCH FOUNDATION, priority 2011, published 2012)
“Also recorded” adds a separate entry of the source. Like-named read-outs stand apart in the source and are kept apart here.

Key:
[1] = system: Human promyelocytic leukemia (HL60) cells; assay: HL-60 differentiation (nitro blue tetrazolium reduction); type: cell-based; conditions: for EC50: HL-60 cells, read-out: EC50, ability to promote HL-60 cell differentiation
Experimental: Serial dilutions were prepared so that a range of drug concentrations could be tested without changing the final concentration of ethanol (≦0.2%) present in the cell cultures.
Human promyelocytic leukemia (HL60) cells were grown in RPMI-1640 medium containing 10% fetal bovine serus. The cells were incubated at 37° C. in the presence of 5% CO2.
HL60 cells were plated at 1.2×10^5 cells/ml. Eighteen hours after plating, cells in duplicate were treated with drug. Four days later, the cells were harvested and a nitro blue tetrazolium reduction assay was performed (Collins et al., 1979; J. Ex. Med. 149:969-974). The percentage of differentiated cells was determined by counting a total of 200 cells and recording the number that contained intracellular black-blue formazan deposits Verification of differentiation to monocytic cells was determined by measuring phagocytic activity (data not shown).

vitamin D-deficient rats [2] = assay: Intestinal calcium transport (everted gut sac method); type: in vivo, Sprague-Dawley rats
Experimental: (§1) Male, weanling Sprague-Dawley rats were placed on Diet 11 (0.47% Ca) diet +AEK for one week followed by Diet 11 (0.02% Ca) +AEK for 3 weeks. The rats were then switched to a diet containing 0.47% Ca for one week followed by two, weeks on a diet containing 0.02% Ca. Dose administration began during the last week on 0.02% calcium diet. Four consecutive ip doses were given approximately 24 hours apart. Twenty-four hours after the last dose, blood was collected from the severed neck and the concentration of serum calcium determined as a measure of bone calcium mobilization. The first 10 cm of the intestine was also collected for intestinal calcium transport analysis using the everted gut sac method.

vitamin D-deficient rats [3] = assay: Bone calcium mobilization (serum calcium); type: in vivo, Sprague-Dawley rats; conditions: rats on low calcium diet (0.02%); for activity in mobilizing calcium from bone / serum calcium levels: all dosages tested; for times less potent than 1,25(OH)2D3 in bone (bone calcium mobilization): 4 ip doses; for mobilization of bone calcium at 7,020 pmol/day: 7,020 pmol/day for 4 consecutive days; for mobilization of bone calcium at 35,100 pmol/day: 35,100 pmol/day for 4 consecutive days
Experimental: as §1

[4] = target: T1, full-length recombinant rat vitamin D receptor (Rattus norvegicus, UniProt P13053); assay: biochemical; conditions: ability to compete with [3H]-1,25(OH)2D3 for binding to the vitamin D receptor, full-length recombinant rat VDR
T1 sequence (P13053 1-423): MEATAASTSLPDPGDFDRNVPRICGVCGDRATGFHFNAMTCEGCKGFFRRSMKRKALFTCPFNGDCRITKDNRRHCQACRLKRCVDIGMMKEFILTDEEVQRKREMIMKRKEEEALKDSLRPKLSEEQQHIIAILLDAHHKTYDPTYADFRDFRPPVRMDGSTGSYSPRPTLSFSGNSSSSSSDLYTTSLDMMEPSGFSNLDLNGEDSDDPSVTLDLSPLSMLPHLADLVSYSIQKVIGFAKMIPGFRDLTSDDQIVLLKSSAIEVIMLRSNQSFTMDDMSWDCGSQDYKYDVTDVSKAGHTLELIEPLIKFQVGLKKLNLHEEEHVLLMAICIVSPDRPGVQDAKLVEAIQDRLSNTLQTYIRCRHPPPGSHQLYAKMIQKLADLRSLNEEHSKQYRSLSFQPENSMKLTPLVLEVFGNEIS
Experimental: (§2) Full-length recombinant rat receptor was expressed in E. coli BL21 (DE3) Codon Plus RIL cells and purified to homogeneity using two different column chromatography systems. The first system was a nickel affinity resin that utilizes the C-terminal histidine tag on this protein. The protein that was eluted from this resin was further purified using ion exchange chromatography (S-Sepharose Fast Flow). Aliquots of the purified protein were quick frozen in liquid nitrogen and stored at −80° C. until use. For use in binding assays, the protein was diluted in TEDK50 (50 mM Tris, 1.5 mM EDTA, pH 7.4, 5 mM DTT, 150 mM KCl) with 0.1% Chaps detergent. The receptor protein and ligand concentration was optimized such that no more than 20% of the added radiolabeled ligand as bound to the receptor.
(§3) Radiolabeled and unlabeled ligands were added to 100 mcl of the diluted protein at a final ethanol concentration of ≦10%; mixed and incubated overnight on ice to reach binding equilibrium. The following day, 100 mcl of hydroxylapaptite slurry (50%) was added to each tube and mixed at 10-minute intervals for 30 minutes. The hydroxylapaptite was collected by centrifugation and then washed three times with Tris-EDTA buffer (50 mM Tris, 1.5 mM EDTA, pH 7.4) containing 0.5% Titron X-100. After the final wash, the pellets were transferred to scintillation vials containing 4 ml of Biosafe II scintillation cocktail, mixed and placed in a scintillation counter. Total binding was determined from the tubes containing only radiolabeled ligand.

[5] = system: 24-hydroxylase (24Ohase) gene promoter; assay: In vitro transcription assay in ROS 17/2.8 (bone) cells, luciferase reporter; type: cell-based; conditions: for EC50: ROS 17/2.8 cells, 24-hydroxylase promoter-luciferase, read-out: EC50, transcriptional activity in bone cells; for logs less transcriptional activity than 1α,25-dihydroxyvitamin D3 in bone cells / times less transcriptional activity than 1α,25-dihydroxyvitamin D3 in bone cells: less than 1,25(OH)2D3
Experimental: Transcription activity was measured in ROS 17/2.8 (bone) cells that were stably transfected with a 24-hydroxylase (24Ohase) gene promoter upstream of a luciferase reporter gene (Arbour et al., 1998). Cells were given a range of doses. Sixteen hours after dosing the cells were harvested and luciferase activities were measured using a luminometer.
RLU=relative luciferase units.

[6] = target: T1, full-length recombinant rat vitamin D receptor; conditions: for Ki: read-out: Ki, ability to compete with [3H]-1,25(OH)2D3 for binding to the vitamin D receptor, full-length recombinant rat VDR
Experimental: as §2, §3

[7] = rats on low calcium diet (0.02%)
[8] = rats on low calcium diet (0.02%), 4 ip doses
[9] = compared with 1,25(OH)2D3 at 780 pmol/day

## CC(O)CCCC(C)C1CCC2C(=CC=C3CC(O)C(C)C(O)C3)CCCC21C (single isomer, unassigned) [FD-1]
[1]
  EC50: 6 nM
Vitamin D-deficient rats [2]; 21,060 pmol/day for 4 consecutive days, compared with 1,25(OH)2D3 at 780 pmol/day
  intestinal calcium transport at 21,060 pmol/day: some intestinal calcium transport, but hot to the same extent as 1,25(OH)2D3
Vitamin D-deficient rats [2]; [7]
  intestinal calcium transport activity: some, but very little, intestinal calcium transport activity
Vitamin D-deficient rats [2]; [8]
  times less potent than 1,25(OH)2D3 in stimulating calcium transport in the gut: approximately 40 times
Vitamin D-deficient rats [3]; 21,060 pmol/day for 4 consecutive days
  mobilization of bone calcium at 21,060 pmol/day: did not result in mobilization of bone calcium
Vitamin D-deficient rats [3]
  activity in mobilizing calcium from bone / serum calcium levels: little, if any, activity
  times less potent than 1,25(OH)2D3 in bone (bone calcium mobilization): more than 40 times
[4]
  Ki: 0.4 nM
[5]
  EC50: 1 nM
  logs less transcriptional activity than 1α,25-dihydroxyvitamin D3 in bone cells: about 1 log
  times less transcriptional activity than 1α,25-dihydroxyvitamin D3 in bone cells: about 10 times

## CC1[C@H](O)CC(=C/C=C2\CCC[C@]3(C)[C@@H]([C@H](C)CCC[C@@H](C)O)CC[C@@H]23)C[C@H]1O (stereo partly drawn) [MY-2, (20R,25R)-2α-methyl-19,26-dinor-1α,25-dihydroxyvitamin D3]
[1]
  HL-60 differentiation potency as compared to 1,25(OH)2D3: as potent as 1,25(OH)2D3; also recorded: little difference
  EC50: 2 nM
Vitamin D-deficient rats [2]; [9]
  intestinal calcium transport at 7,020 pmol/day: some intestinal calcium transport activity, but still not to the same extent as 1,25(OH)2D3
Vitamin D-deficient rats [3]
  mobilization of bone calcium at 7,020 pmol/day: did not result in mobilization of bone calcium
  mobilization of bone calcium at 35,100 pmol/day: without any substantial effect
  activity in mobilizing calcium from bone / serum calcium levels: little, if any, activity
  times less potent than 1,25(OH)2D3 in bone (bone calcium mobilization): more than 50 times
[6]
  binding to the receptor as compared to 1,25(OH)2D3: bound equally well; also recorded: equivalent
  Ki: 0.2 nM
[5]
  transcriptional activity in bone cells as compared to 1α,25-dihydroxyvitamin D3: equivalent to 1α,25-dihydroxyvitamin D3; also recorded: about the same transcriptional activity
  EC50: 0.4 nM

## CC1[C@H](O)CC(=C/C=C2\CCC[C@]3(C)[C@@H]([C@H](C)CCC[C@@H](C)O)CC[C@@H]23)C[C@H]1O (stereo partly drawn) [DW-1, (20R,25R)-2β-methyl-19,26-dinor-1α,25-dihydroxyvitamin D3]
[1]
  EC50: 60 nM
  times less potent than 1,25(OH)2D3 on HL-60 differentiation: about 30 times
Vitamin D-deficient rats [2]; [9]
  intestinal calcium transport at 35,100 pmol/day: some intestinal calcium transport activity, but still not to the same extent as 1,25(OH)2D3
Vitamin D-deficient rats [3]
  mobilization of bone calcium at 7,020 pmol/day: did not result in mobilization of bone calcium
  mobilization of bone calcium at 35,100 pmol/day: without any substantial effect
  activity in mobilizing calcium from bone / serum calcium levels: little, if any, activity
  times less potent than 1,25(OH)2D3 in bone (bone calcium mobilization): more than 50 times
[6]
  Ki: 1 nM
[5]
  EC50: 20 nM
  logs less transcriptional activity than 1α,25-dihydroxyvitamin D3 in bone cells: about 2 log
  times less transcriptional activity than 1α,25-dihydroxyvitamin D3 in bone cells: ~20 times

## CC(O)CCCC(C)C1CCC2C(=CC=C3CC(O)C(C)C(O)C3)CCCC21C (single isomer, unassigned) [TH-1]
[1]
  EC50: 70 nM
  logs less potent than 1,25(OH)2D3 on HL-60 differentiation: 3 log
Vitamin D-deficient rats [2]; [9]
  intestinal calcium transport at 35,100 pmol/day: some intestinal calcium transport activity, but still not to the same extent as 1,25(OH)D3
Vitamin D-deficient rats [3]
  mobilization of bone calcium at 35,100 pmol/day: did not result in mobilization of bone calcium
  activity in mobilizing calcium from bone / serum calcium levels: little, if any, activity
  times less potent than 1,25(OH)2D3 in bone (bone calcium mobilization): more than 50 times
[4]
  Ki: 5 nM
[5]
  logs less transcriptional activity than 1α,25-dihydroxyvitamin D3 in bone cells: about 2 log
  times less transcriptional activity than 1α,25-dihydroxyvitamin D3 in bone cells: ~20 times

## CC1[C@H](O)CC(=C/C=C2\CCC[C@]3(C)[C@@H]([C@@H](C)CCC[C@H](C)O)CC[C@@H]23)C[C@H]1O (stereo partly drawn) [IB-1, (20S,25S)-2β-methyl-19,26-dinor-1α,25-dihydroxyvitamin D3]
[1]
  EC50: 20 nM
  logs less potent than 1,25(OH)2D3 on HL-60 differentiation: one and about one
  times less potent than 1,25(OH)2D3 on HL-60 differentiation: 10 times
Vitamin D-deficient rats [2]; [9]
  intestinal calcium transport at 35,100 pmol/day: some intestinal calcium transport activity; but still not to the same extent as 1,25(OH)2D3
Vitamin D-deficient rats [3]
  mobilization of bone calcium at 35,100 pmol/day: did not result in mobilization of bone calcium
  activity in mobilizing calcium from bone / serum calcium levels: little, if any, activity
  times less potent than 1,25(OH)2D3 in bone (bone calcium mobilization): more than 50 times
[6]
  Ki: 0.8 nM
[5]
  EC50: 7 nM
  logs less transcriptional activity than 1α,25-dihydroxyvitamin D3 in bone cells: about 3 log
  times less transcriptional activity than 1α,25-dihydroxyvitamin D3 in bone cells: approximately 30 times

## CC(O)CCCC(C)C1CCC2C(=CC=C3CC(O)C(C)C(O)C3)CCCC21C (single isomer, unassigned) [NC-2]
[1]
  HL-60 differentiation potency as compared to 1,25(OH)2D3: little difference
  EC50: 5 nM
[1]; more potent than 1,25(OH)2D3
  times more potent than 1,25(OH)2D3 on HL-60 differentiation: 4 times
Vitamin D-deficient rats [2]; [9]
  intestinal calcium transport at 7,020 pmol/day: some intestinal calcium transport activity, but still not to the same extent as 1,25(OH)2D3
  intestinal calcium transport at 35,100 pmol/day: some intestinal calcium transport activity, but still not to the same extent as 1,25(OH)2D3
Vitamin D-deficient rats [2]; [8]
  logs less potent than 1,25(OH)2D3 in the intestine: approximately 5 log
Vitamin D-deficient rats [3]
  mobilization of bone calcium at 7,020 pmol/day: did not result, in mobilization of bone calcium
  mobilization of bone calcium at 35,100 pmol/day: without any substantial effect
  activity in mobilizing calcium from bone / serum calcium levels: little, if any, activity
  times less potent than 1,25(OH)2D3 in bone (bone calcium mobilization): more than 50 times
[4]
  Ki: 0.2 nM
[6]
  binding to the receptor as compared to 1,25(OH)2D3: bound equally well; also recorded: equivalent
[5]
  transcriptional activity in bone cells as compared to 1α,25-dihydroxyvitamin D3: slightly less transcriptional activity
  EC50: 0.6 nM
  logs less transcriptional activity than 1α,25-dihydroxyvitamin D3 in bone cells: about one-half

## CC(O)CCCC(C)C1CCC2C(=CC=C3CC(O)C(C)C(O)C3)CCCC21C (single isomer, unassigned) [TA-2]
[1]
  EC50: 0.5 nM
Vitamin D-deficient rats [2]; [9]
  intestinal calcium transport at 7,020 pmol/day: some intestinal calcium transport activity, but still not to the same extent as 1,25(OH)2D3
Vitamin D-deficient rats [2]; [8]
  logs less potent than 1,25(OH)2D3 in the intestine: approximately 1 log and one
Vitamin D-deficient rats [3]
  mobilization of bone calcium at 7,020 pmol/day: did not result in mobilization of bone calcium
  mobilization of bone calcium at 35,100 pmol/day: without any substantial effect
  activity in mobilizing calcium from bone / serum calcium levels: little, if any, activity
  times less potent than 1,25(OH)2D3 in bone (bone calcium mobilization): more than 50 times
[6]
  binding to the receptor as compared to 1,25(OH)2D3: bound equally well; also recorded: equivalent
[5]
  EC50: 0.08 nM
[5]; more than 1,25(OH)2D3
  times more transcriptional activity than 1α,25-dihydroxyvitamin D3 in bone cells: about 4 times

## C=C1/C(=C\C=C2/CCC[C@]3(C)[C@@H]([C@H](C)CCCC(C)(C)O)CC[C@@H]23)C[C@@H](O)C[C@@H]1O [1,25(OH)2D3, 1α,25-dihydroxyvitamin D3, reference compound]
[1]
  EC50: 2 nM
Vitamin D-deficient rats [2]; [7]
  intestinal calcium transport activity: significant activity
Vitamin D-deficient rats [3]
  activity in mobilizing calcium from bone / serum calcium levels: increased serum calcium levels
[5]
  EC50: 0.2 nM
